Data reported in patent US20220313620A1, “COMPOSITION FOR PREVENTING AND TREATING TAUOPATHIES” (SERVICIO ANDALUZ DE SALUD, priority 2019, published 2022).

Columns and labels:
[1] = tested on: glycogen synthase kinase-3β (GSK-3β); assay: Hippocampal GSK-3β phosphorylation and total level (western blot) after 10 days of oral administration; assay type: in vivo, Wistar rats; conditions: oral 100 mg/Kg for 10 days, hippocampus
Description: (§1) Animal experimental procedures were carried out in accordance with the European Communities directive 2010/63/EU and Spanish legislation (Real Decreto 53/2013). The protocol was approved by the Research and approved by Ethics Committee for Animal Experiments of the University of Malaga, Spain. In accordance with the ARRIVE guidelines, all efforts were made to minimize animal suffering and to reduce the number of animals used per experimental group. Chronic drinking experiments on Wistar rats were performed on 20 male rats. All adult rats, ageing 2 months (≈300 g of body weight), were provided by Charles River Laboratories (Barcelona, Spain). The animals were housed individually under a standard 12 h light-dark cycle in a room with temperature and humidity control. Water and rat chow pellets were provided ad libitum throughout the course of the present study.
(§2) Caromax®-D-Pinitol (3-O-methyl-d-chiro-inositol, DPIN, 98% purity) and Caromax®-D-Chiro-inositol (cis-1,2,3-trans-3,5,6-cyclohexanehexol, DCI) were provided by Euronutra SL (Málaga, Spain). They were dissolved in water to orally daily administration by drinking and/or gavage at dose of 100 mg/Kg of body weight (BW) in a 1 ml/kg of BW volume to Zucker and Wistar rats for 4 weeks (28 days) and 10 days, respectively (FIG. 1). During the drinking treatments, the concentration of inositols in the water were updated considering the daily increase of BW of the rats and the possible loss of water by evaporation.
(§3) Brain extract. Frozen brain samples (17 mg per sample) were homogenized in 1 mL of cold RIPA lysis buffer (50 mM Tris-HCl pH 7.4, 150 mM NaCl, 0.5% NaDOC, 1 mM EDTA, 1% Triton, 0.1% SDS, 1 mM Na3VO4, 1 mM NaF) supplemented with a protease cocktail (Hoffmann-Roche). The suspension was incubated for 2 hours at 4° C., followed by centrifugation at 12,000 rpm for 15 minutes at 4° C. The supernatant was transferred to a new clean centrifuge tube, and Bradford colorimetric method was used to determine the concentration of the total protein. The protein extracts were diluted 1:1 in loading buffer (DTT 2X) and heated for 5 minutes at 99° C. before being subjected to electrophoresis.
Western Blot Analysis. The tissue protein (10-15 μg) was subjected to electrophoresis on 4-12% Criterion XT Precast Bis-Tris gels (Bio-Rad, USA) for 30 minutes at 80V and 2 h at 150V. Proteins were transferred onto a 0.2 μm nitrocellulose membrane (Bio-Rad, USA) for 1 h at 80V by wet transfer equipment. The membrane was washed twice for 5 min in TBST (10 mM Tris-HCl, 150 mM NaCl, 0.1% Tween 20, pH 7.6) and blocked with 2% Bovine Serum Albumin-Tris Buffered Saline Tween 20 (BSA-TBST) for one hour at room temperature on a shaker platform. Subsequently, the membrane was incubated with respective primary antibodies overnight at 4° C. diluted in 2% BSA-TBST (Table 2 for additional information). The following day, the membrane was washed three times for 5 min with TBST. An appropriate HRP conjugated rabbit/mouse secondary antibody (Promega) was diluted 1:10000 in 2% BSA-TST and incubated with the membrane for 1 h shaking at room temperature. Finally, the membrane was washed as above and exposed to chemiluminescent reagent (Santa Cruz, Biotechnology Inc.) for 5 min. Stripping/reproving steps were used when necessary. Respective membrane bound protein was then visualized by Chemiluminescence (ChemiDoc Imaging System, Bio-Rad). Bands were quantified by densitometric analysis using ImageJ software (Rasband, WS, ImageJ, US National Institutes of Health, Bethesda, Md., USA). Normalization was performed using a reference protein of the same membrane, the α-Adaptin. The results were expressed as the protein/α-Adaptin ratio or phosphorylated/total protein ratio and normalized to the control group (Y axis represents ‘fold mean of the control values’).
All data are expressed as mean±SEM. Statistical analysis was undertaken for studies where each group size was of, at least, n=5. […]

[2] = tested on: Ghrelin; assay: Plasma ghrelin (ELISA) after acute oral gavage in fasted rats; assay type: in vivo; conditions: oral 500 mg/kg, adult male Wistar rats, FIG. 3A / FIG. 4
Description: The protocol was approved by the Ethics Committee for Animal Experiments of the University of Malaga.
D-Pinitol (3-0-methyl-D-chiro-inositol) was generously provided by EURONUTRA SL (https://www.euronutra.com/, Malaga, Spain), in the form of crystalline fine powder (lot: PPN-M0201). For acute treatments, D-Pinitol was dissolved in water to be administered by gavage (orally) at different concentrations (100 mg/Kg and 500 mg/Kg), drug was administered at a volume of 1 ml/kg.
After 18 hours of fasting, D-Pinitol dissolved in water was administered acutely by gavage (100 mg/kg in a first study, and 500 mg/kg in a subsequent study). After administration, the animals were sacrificed in groups at different times (being time 0 the administration of D-Pinitol). For the first study (100 mg/kg), groups of animals were sacrificed at times: 10, 20, 30, 60, 120, 240 and 360 minutes after administration; for the second study (500 mg/kg), animals were sacrificed at times: 60, 120 and 240 minutes after administration. As a control group, a group was administered only with water (by gavage).
Animals were anesthetized with sodium pentobarbital (50 mg/Kg, i.p.), blood, brain and liver samples were collected. Blood was centrifuged (2100 g for 8 min, 4° C.) and the plasma kept for further analysis. Liver and brain samples were flash-frozen in liquid N2, then stored at −80° C. until further analysis.
The plasma levels of insulin and ghrelin were determined with an enzyme-linked immunosorbent assay (ELISA) method using commercial kits: EMD Millipore Corporation (Billerica, Mass., USA) Cat. #EZRMI-13K and Cat. #EZRGRT-91K, respectively. Glucagon levels in plasma was determined with a Glucagon Enzyme Immunoassay (EIA) Kit: Cat. #RAB0202 Sigma-Aldrich (Saint Louis, Mo., USA). All serum samples were assayed in duplicate within one assay, and results were expressed in terms of the particular standard hormone.

[3] = tested on: tau protein; assay: Hippocampal tau phosphorylation and total tau (western blot) after 10 days of oral drinking; assay type: in vivo, Wistar rats; conditions: oral by drinking 100 mg/Kg for 10 days, hippocampus
Description: as §1, §2, §3
Western Blot Analysis. The tissue protein (10-15 μg) was subjected to electrophoresis on 4-12% Criterion XT Precast Bis-Tris gels (Bio-Rad, USA) for 30 minutes at 80V and 2 h at 150V. […] Bands were quantified by densitometric analysis using ImageJ software (Rasband, WS, ImageJ, US National Institutes of Health, Bethesda, Md., USA). […] The results were expressed as the protein/α-Adaptin ratio or phosphorylated/total protein ratio and normalized to the control group (Y axis represents ‘fold mean of the control values’).
All data are expressed as mean±SEM. […]

OC1C(O)C(O)C(O)C(O)C1O [DCI, (1R,2R,3S,4S,5S,6S)-cyclohexane-1,2,3,4,5,6-hexol]
GSK-3β serine-9 phosphorylation ([1]; FIG. 9A.1): no effect
GSK-3β tyrosine-216 phosphorylation ([1]; FIG. 9A.2): no effect
GSK-3β kinase activity (Ser9/Tyr216) ([1]; FIG. 9A.3): neither enhance nor inhibition
circulating plasma Ghrelin concentration [2]: enhances
quantity of phospho-tau (AT8: Ser202, Thr205) compared with vehicle group ([3]; FIG. 7A.1): dropped to more than half
relative protein levels of total tau compared with vehicle group ([3]; FIG. 7A.2): rise
